From the NIST ThermoML archive (doi:10.1021/acs.jced.5b01007)
± gives the expanded uncertainty stated by the source.

Details: Fluid (supercritical or subcritical phases), Frequency=8 MHz, Pulse-echo method

A speed of sound (299.96 K, 14860 kPa) of 352.65 ± 0.38 m/s, a speed of sound (299.97 K, 9920 kPa) of 340.22 ± 0.38 m/s and a speed of sound (299.97 K, 20050 kPa) of 370.99 ± 1.6 m/s were found for `O=O` [oxygen] in this work. The speed of sound (299.97 K, 25030 kPa) was 392.82 ± 1.9 m/s, the speed of sound (299.97 K, 29960 kPa) was 417.33 ± 2.1 m/s and the speed of sound (299.97 K, 34960 kPa) was 443.87 ± 2.2 m/s. For the same molecule, the speed of sound (299.97 K, 39960 kPa) was 471.2 ± 2.2 m/s, the speed of sound (299.97 K, 45030 kPa) was 498.92 ± 2.2 m/s and the speed of sound (299.97 K, 50010 kPa) was 525.82 ± 2.2 m/s. The speed of sound (299.97 K, 55140 kPa) was 552.86 ± 2.1 m/s, the speed of sound (299.97 K, 60160 kPa) was 578.47 ± 2.1 m/s and the speed of sound (299.97 K, 64960 kPa) was 602.28 ± 2 m/s. The speed of sound (299.97 K, 69690 kPa) was 624.95 ± 2 m/s, the speed of sound (300 K, 74030 kPa) was 645.07 ± 1.9 m/s and the speed of sound (349.98 K, 8030 kPa) was 367.01 ± 0.39 m/s. It also gave a speed of sound (349.98 K, 29990 kPa) of 433.29 ± 1.6 m/s, a speed of sound (349.98 K, 49900 kPa) of 518.73 ± 1.8 m/s and a speed of sound (349.98 K, 78850 kPa) of 641.85 ± 1.7 m/s. For the same molecule, the speed of sound (349.99 K, 10070 kPa) was 370.9 ± 0.39 m/s, the speed of sound (349.99 K, 14980 kPa) was 382.53 ± 0.4 m/s and the speed of sound (349.99 K, 19640 kPa) was 396.03 ± 0.4 m/s. It also gave a speed of sound (349.99 K, 24980 kPa) of 414.2 ± 1.5 m/s, a speed of sound (349.99 K, 35080 kPa) of 454.09 ± 1.7 m/s and a speed of sound (349.99 K, 45020 kPa) of 497.15 ± 1.8 m/s. The speed of sound (349.99 K, 55110 kPa) was 541.66 ± 1.8 m/s, the speed of sound (349.99 K, 59910 kPa) was 562.59 ± 1.8 m/s and the speed of sound (349.99 K, 68690 kPa) was 600.07 ± 1.7 m/s. The speed of sound (350.03 K, 40050 kPa) was 475.39 ± 1.8 m/s, the speed of sound (350.03 K, 64930 kPa) was 584.11 ± 1.8 m/s and the speed of sound (399.05 K, 83180 kPa) was 648.15 ± 1.5 m/s. It also gave a speed of sound (399.06 K, 19900 kPa) of 421.58 ± 0.42 m/s, a speed of sound (399.07 K, 74590 kPa) of 617.2 ± 1.6 m/s and a speed of sound (399.07 K, 79990 kPa) of 636.78 ± 1.5 m/s. For the same molecule, the speed of sound (399.08 K, 34890 kPa) was 469.6 ± 1.5 m/s, the speed of sound (399.08 K, 39970 kPa) was 487.82 ± 1.5 m/s and the speed of sound (399.08 K, 44980 kPa) was 506.29 ± 1.6 m/s. For the same molecule, the speed of sound (399.08 K, 54970 kPa) was 543.88 ± 1.6 m/s, the speed of sound (399.08 K, 60070 kPa) was 563.14 ± 1.6 m/s and the speed of sound (399.08 K, 64900 kPa) was 581.28 ± 1.6 m/s. For the same molecule, the speed of sound (399.08 K, 70100 kPa) was 600.65 ± 1.6 m/s, the speed of sound (399.09 K, 4960 kPa) was 388.03 ± 0.4 m/s and the speed of sound (399.09 K, 6020 kPa) was 389.77 ± 0.4 m/s. The speed of sound (399.09 K, 7950 kPa) was 393.26 ± 0.4 m/s, the speed of sound (399.09 K, 25010 kPa) was 436.72 ± 1.3 m/s and the speed of sound (399.09 K, 29900 kPa) was 452.47 ± 1.4 m/s. The speed of sound (399.09 K, 50090 kPa) was 525.43 ± 1.6 m/s, the speed of sound (399.1 K, 15010 kPa) was 408.72 ± 0.41 m/s and the speed of sound (399.11 K, 9980 kPa) was 397.34 ± 0.4 m/s. For the same molecule, the speed of sound (449.79 K, 87520 kPa) was 660.32 ± 1.4 m/s, the speed of sound (449.87 K, 80010 kPa) was 636.12 ± 1.4 m/s and the speed of sound (449.88 K, 75270 kPa) was 620.61 ± 1.4 m/s. For the same molecule, the speed of sound (449.88 K, 85020 kPa) was 652.33 ± 1.4 m/s, the speed of sound (449.89 K, 65180 kPa) was 587.16 ± 1.4 m/s and the speed of sound (449.89 K, 70120 kPa) was 603.58 ± 1.4 m/s. It also gave a speed of sound (449.9 K, 55090 kPa) of 553.54 ± 1.4 m/s, a speed of sound (449.9 K, 60070 kPa) of 570.12 ± 1.4 m/s and a speed of sound (449.93 K, 35030 kPa) of 488.6 ± 1.3 m/s. For the same molecule, the speed of sound (449.93 K, 40050 kPa) was 504.35 ± 1.4 m/s, the speed of sound (449.94 K, 6010 kPa) was 414.33 ± 0.41 m/s and the speed of sound (449.94 K, 9970 kPa) was 422.01 ± 0.41 m/s. The speed of sound (449.94 K, 15000 kPa) was 433.26 ± 0.42 m/s, the speed of sound (449.94 K, 20010 kPa) was 445.6 ± 1.1 m/s and the speed of sound (449.94 K, 24940 kPa) was 458.85 ± 1.2 m/s. For the same molecule, the speed of sound (449.94 K, 30000 kPa) was 473.4 ± 1.3 m/s, the speed of sound (449.94 K, 45090 kPa) was 520.58 ± 1.4 m/s and the speed of sound (449.94 K, 49910 kPa) was 536.52 ± 1.4 m/s. For the same molecule, the speed of sound (449.95 K, 8010 kPa) was 418.16 ± 0.41 m/s, the speed of sound (449.95 K, 88050 kPa) was 662.01 ± 1.4 m/s and the speed of sound (498.83 K, 69940 kPa) was 610.55 ± 1.3 m/s. The speed of sound (498.89 K, 60010 kPa) was 580.54 ± 1.3 m/s, the speed of sound (498.89 K, 65000 kPa) was 595.63 ± 1.3 m/s and the speed of sound (498.9 K, 95000 kPa) was 684.96 ± 1.3 m/s. The speed of sound (498.91 K, 74960 kPa) was 625.69 ± 1.3 m/s, the speed of sound (498.91 K, 90000 kPa) was 670.28 ± 1.3 m/s and the speed of sound (498.91 K, 100060 kPa) was 699.53 ± 1.3 m/s. The speed of sound (498.92 K, 79990 kPa) was 640.74 ± 1.3 m/s, the speed of sound (498.93 K, 84890 kPa) was 655.27 ± 1.3 m/s and the speed of sound (498.94 K, 10000 kPa) was 444.64 ± 0.43 m/s. For the same molecule, the speed of sound (498.99 K, 40010 kPa) was 521.13 ± 1.2 m/s, the speed of sound (499 K, 29910 kPa) was 492.81 ± 1.2 m/s and the speed of sound (499 K, 34730 kPa) was 506.11 ± 1.2 m/s. The speed of sound (499 K, 44900 kPa) was 535.41 ± 1.3 m/s, the speed of sound (499.01 K, 24900 kPa) was 479.52 ± 1.1 m/s and the speed of sound (499.02 K, 14940 kPa) was 455.31 ± 0.43 m/s. The speed of sound (499.03 K, 4920 kPa) was 434.71 ± 0.42 m/s, the speed of sound (499.03 K, 5910 kPa) was 436.52 ± 0.42 m/s and the speed of sound (499.03 K, 7820 kPa) was 440.23 ± 0.42 m/s. For the same molecule, the speed of sound (499.03 K, 49930 kPa) was 550.29 ± 1.3 m/s, the speed of sound (499.03 K, 54810 kPa) was 564.89 ± 1.3 m/s and the speed of sound (499.04 K, 20070 kPa) was 467.39 ± 1.1 m/s.
